For series [1] the following is noted: Liquid; for viscosity: 101.3 kPa; for mass density: 101.33 kPa.
A short description of series [2]: xn = mol fraction of the nth substance listed. The conditions noted are these: 101.3 kPa, Liquid, x2 = 0.

Numbers after ± are expanded uncertainties.

Twelve molecules from the NIST ThermoML archive (doi:10.1021/je0341413) can be followed below.

As to `CCO` [ethanol], the viscosity – broadly, the internal friction of a fluid under shear – in series [1] (293.15 K) is listed as 1.194 ± 0.037 mPa·s; in series [1] (298.15 K), 1.105 ± 0.035 mPa·s; in series [1] (303.15 K) it was 0.972 ± 0.031 mPa·s; in series [1] (313.15 K), 0.826 ± 0.026 mPa·s. Also, the mass density (as a rule, mass per unit of volume) in series [1] (298.15 K) came out at 785 ± 0.5 kg/m3.

For `CCCCO` [butan-1-ol], the viscosity in series [1] (293.15 K) worked out at 2.941 ± 0.092 mPa·s; in series [1] (298.15 K), 2.62 ± 0.083 mPa·s; in series [1] (303.15 K) it was 2.255 ± 0.071 mPa·s; in series [1] (313.15 K) it was 1.754 ± 0.056 mPa·s. In addition, the mass density in series [1] (298.15 K) is given as 805.9 ± 0.4 kg/m3.

Consider `CCOC(=O)OCC` [diethyl carbonate], for which the viscosity in series [1] (293.15 K) amounted to 0.795 ± 0.025 mPa·s; in series [1] (298.15 K), 0.749 ± 0.024 mPa·s; in series [1] (303.15 K), 0.699 ± 0.022 mPa·s; in series [1] (313.15 K) it was 0.623 ± 0.02 mPa·s. Further, the mass density in series [1] (298.15 K) amounted to 969.1 ± 0.3 kg/m3.

`CCCCCO` [pentan-1-ol] + CCOC(=O)OCC: the viscosity in series [2] (293.15 K) came to 3.979 ± 0.13 mPa·s; in series [2] (298.15 K), 3.347 ± 0.11 mPa·s; in series [2] (303.15 K), 2.932 ± 0.093 mPa·s; in series [2] (313.15 K), 2.256 ± 0.072 mPa·s.

`CCCO` [propan-1-ol]: the viscosity in series [1] (293.15 K) is 2.198 ± 0.069 mPa·s; in series [1] (298.15 K) it was 1.97 ± 0.062 mPa·s; in series [1] (303.15 K), 1.707 ± 0.054 mPa·s; in series [1] (313.15 K) it was 1.361 ± 0.043 mPa·s. Moreover, in series [1] (298.15 K), the mass density was determined as 799.5 ± 0.5 kg/m3.

`CCC(C)O` (stereo unspecified) [butan-2-ol]: the viscosity in series [1] (293.15 K) was 3.619 ± 0.23 mPa·s; in series [1] (298.15 K), 3.115 ± 0.2 mPa·s; in series [1] (303.15 K) it was 2.503 ± 0.16 mPa·s; in series [1] (313.15 K) it was 1.784 ± 0.11 mPa·s. Further, in series [1] (298.15 K), the mass density is recorded as 802.4 ± 0.5 kg/m3.

With `CCCO` [propan-1-ol] + CCOC(=O)OCC, the viscosity is recorded as 2.198 ± 0.069 mPa·s in series [2] (293.15 K), 1.97 ± 0.062 mPa·s in series [2] (298.15 K), 1.707 ± 0.054 mPa·s in series [2] (303.15 K) and 1.361 ± 0.043 mPa·s in series [2] (313.15 K).

In the case of `CO` [methanol] + CCOC(=O)OCC, the viscosity came to 0.591 ± 0.019 mPa·s in series [2] (293.15 K), 0.553 ± 0.018 mPa·s in series [2] (298.15 K), 0.514 ± 0.016 mPa·s in series [2] (303.15 K) and 0.45 ± 0.014 mPa·s in series [2] (313.15 K).

On to `CCC(C)O` (stereo unspecified) [butan-2-ol] + CCOC(=O)OCC, for which the viscosity came to 3.619 ± 0.23 mPa·s in series [2] (293.15 K), 3.115 ± 0.2 mPa·s in series [2] (298.15 K), 2.503 ± 0.16 mPa·s in series [2] (303.15 K) and 1.784 ± 0.11 mPa·s in series [2] (313.15 K).

Regarding `CO` [methanol], the viscosity in series [1] (293.15 K) came out at 0.591 ± 0.019 mPa·s; in series [1] (298.15 K), 0.553 ± 0.018 mPa·s; in series [1] (303.15 K), 0.514 ± 0.016 mPa·s; in series [1] (313.15 K), 0.45 ± 0.014 mPa·s. For the same molecule, the mass density in series [1] (298.15 K) was found to be 786.6 ± 0.5 kg/m3.

Regarding `CC(C)O` [propan-2-ol], the viscosity in series [1] (293.15 K) is reported as 2.386 ± 0.075 mPa·s; in series [1] (298.15 K), 2.098 ± 0.067 mPa·s; in series [1] (303.15 K) it was 1.763 ± 0.056 mPa·s; in series [1] (313.15 K) it was 1.325 ± 0.042 mPa·s. In addition, in series [1] (298.15 K), the mass density worked out at 780.9 ± 0.5 kg/m3.

Turning to `CCCCCO` [pentan-1-ol], the viscosity in series [1] (293.15 K) was determined as 3.979 ± 0.13 mPa·s; in series [1] (298.15 K), 3.347 ± 0.11 mPa·s; in series [1] (303.15 K), 2.932 ± 0.093 mPa·s; in series [1] (313.15 K) it was 2.256 ± 0.072 mPa·s. Also, the mass density in series [1] (298.15 K) turned out to be 810.9 ± 0.6 kg/m3.
